Test results as given in article PMC3578785, “Improved BM212 MmpL3 Inhibitor Analogue Shows Efficacy in Acute Murine Model of Tuberculosis Infection” (PLoS ONE, 2013).
Values after ≈ are worked out from the molar mass of the structure shown. Read-outs that look alike come from different tables or passages of the source.

What was measured:
[1] = tested on: HepG2 cells; details: human, 48 h
[2] = in vitro; assay type: in vitro ADME, mouse; details: pH 7.4; for Cli mouse: 0.5 µM; for half-life: mouse microsomes, read-out: t1/2 in mouse microsomes
Procedure: (§1) Protocol S6. Microsomal fraction stability experimental procedure.
(§2) Pooled mouse and human liver microsomes are purchased from Xenotech. Microsomes (final protein concentration 0.5 mg/mL, MgCl2 (final concentration = 5 mM) and test compound (final substrate concentration = 0.5 µM; final DMSO concentration = 0.5%) in 0.1M phosphate buffer pH 7.4 were pre-incubated at 37°C prior to the addition of NADPH (final concentration = 1 mM) to initiate the reaction. The final incubation volume was 600 µL. A control incubation was included for each compound tested where 0.1 M phosphate buffer pH 7.4 is added instead of NADPH (minus NADPH). One control compound was included with each species. All incubations were performed singularly for each test compound. Each compound was incubated for 30 minutes and samples (90 µL) of incubate were taken at 0, 5, 15, 20 and 30 min. The control (minus NADPH) was sampled at 30 min only. The reactions were stopped by the addition of sample to 200 µL Acetonitrile:Methanol 3:1 containing internal standard. The terminated samples were centrifuged at 2.500 rpm for 20 min at 4°C to precipitate the protein.
(§3) Quantitative Analysis: following protein precipitation, the samples were analyzed using specific […]
(§4) Data Analysis: from a plot of ln peak area ratio (compound peak area/internal standard peak area) against time, the gradient of the line was determined. Subsequently, half-life and intrinsic clearance were calculated using the equations below:
(§5) Elimination rate constant (k) = (- gradient)
(§6) Half life (t1/2) (min) = […]
(§7) Intrinsic Clearance (CLint) (mL/min/g protein) = […] where V=Incubation volume mL/g microsomal protein.

[3] = tested on: M. tuberculosis H37Rv; assay: microbe, parasite or virus in culture; assay type: cell-based; details: Mycobacterium tuberculosis, aerobic conditions
[4] = physchem
[5] = in vitro; details: plasma, pH 7.4
[6] = target: human serum albumin (HSA) (Homo sapiens, UniProt P02768); assay type: in vitro ADME; details: human, pH 7.4
Procedure: Standard physical chemical property determination methods were used. Please see the Supporting Information for details.
Protocol S4. Determination of compounds binding to human serum albumin (HSA).
The determination of compounds binding to human serum albumin (HSA) was carried out by retention time measurements using immobilized HSA HPLC columns obtained from Chiral Technologies Ltd, France. The column dimensions were 50x3 mm. The mobile phase was 50 mM ammonium acetate buffer pH 7.4 and HPLC grade 2-propanol. HPLC Method: flow rate 1.8 ml/min applying 2.5 min 2-propanol gradient up to 30%. From 2.5 min to 4.5 min the 2-propanol concentration in the mobile phase was kept at 30%. From 4.5 min to 4.6 min, the 2-propanol concentration was decreased to 0% and kept like that until the end of the gradient run which was 6 min. A calibration set of compounds was first analyzed for which plasma protein binding data were available: Warfarin, Nizatidine, Bromazepam, Carbamazepine, Budesonide, Nicardipine, Indomethacine, Piroxicam, Naproxen. The calculation of the HSA binding data expressed as %HSA was carried out as described previously.

[7] = in vitro; details: African green monkey
[8] = in vitro; assay type: in vitro ADME, human; details: pH 7.4; for Cli human: 0.5 µM; for half-life: human microsomes, read-out: t1/2 in human microsomes
Procedure: as §1, §2, §3, §4, §5, §6, §7

Chain of human serum albumin (HSA) (P02768 25-609): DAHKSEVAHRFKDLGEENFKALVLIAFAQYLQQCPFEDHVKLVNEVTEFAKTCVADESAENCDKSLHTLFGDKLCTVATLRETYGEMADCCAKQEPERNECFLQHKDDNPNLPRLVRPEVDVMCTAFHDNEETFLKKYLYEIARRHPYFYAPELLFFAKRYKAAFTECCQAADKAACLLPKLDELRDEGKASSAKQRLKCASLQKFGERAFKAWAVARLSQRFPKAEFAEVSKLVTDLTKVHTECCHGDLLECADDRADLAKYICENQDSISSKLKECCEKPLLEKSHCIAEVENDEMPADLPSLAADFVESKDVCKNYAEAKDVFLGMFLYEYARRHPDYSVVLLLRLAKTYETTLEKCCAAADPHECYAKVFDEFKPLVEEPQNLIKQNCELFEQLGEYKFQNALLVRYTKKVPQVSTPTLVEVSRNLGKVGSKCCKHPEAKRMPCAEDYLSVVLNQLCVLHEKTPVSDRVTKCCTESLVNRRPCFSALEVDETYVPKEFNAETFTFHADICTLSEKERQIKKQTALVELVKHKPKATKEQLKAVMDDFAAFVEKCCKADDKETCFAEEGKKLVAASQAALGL

Cc1c(CN2CCN(C)CC2)cc(-c2ccc(Cl)cc2)n1-c1ccc(Cl)cc1 [Compound 1]
Tox50, cytotoxicity in HepG2 cells [1]: 7.8 µM | Cli mouse [2]: 0.7 ± 0.1 mL/min/g | half-life [2]: > 30 min | MIC [3]: 5 µM (≈ 2.07 µg/mL) | chromatographic logD ([4]; pH 2): 0.7 | chromatographic logD ([4]; pH 7.4): 4.51 | chromatographic logD ([4]; pH 10.5): 5.01 | fraction unbound at 1 µM [5]: 0.002 | HSA (%) binding [6]: 98.07%

Cc1ccc(-c2cc(CN3CCSCC3)c(C)n2-c2ccc(F)cc2)cc1 [Compound 2]
Tox50, cytotoxicity in HepG2 cells [1]: 24.01 µM | Cli mouse [2]: 7.2 ± 0.2 mL/min/g | half-life [2]: 8.2 min | MIC [3]: 0.16 to 0.2 µM (≈ 0.0609 to 0.0761 µg/mL) | chromatographic logD ([4]; pH 2): 1.31 | chromatographic logD ([4]; pH 7.4): 4.54 | chromatographic logD ([4]; pH 10.5): 5.08 | fraction unbound at 1 µM [5]: < 0.001 | HSA (%) binding [6]: 97.91% | CC50 at 72 h [7]: 179 µM

COc1ccc(-c2cc(CN3CCSCC3)c(C)n2-c2ccc(F)cc2)cc1 [Compound 3]
Cli mouse [2]: 18.76 mL/min/g | half-life [2]: < 5 min | MIC [3]: 0.16 to 0.2 µM (≈ 0.0634 to 0.0793 µg/mL) | chromatographic logD ([4]; pH 2): 1.07 | chromatographic logD ([4]; pH 7.4): 3.97 | chromatographic logD ([4]; pH 10.5): 4.62 | fraction unbound at 1 µM [5]: 0.004 | HSA (%) binding [6]: 96.82% | CC50 at 72 h [7]: > 302 µM

CSc1ccc(-c2cc(CN3CCSCC3)c(C)n2-c2ccc(F)cc2)cc1 [Compound 4]
Cli mouse [2]: 7.3 ± 0.1 mL/min/g | half-life [2]: 10 min | MIC [3]: 0.16 to 0.2 µM (≈ 0.066 to 0.0825 µg/mL) | chromatographic logD ([4]; pH 2): 1.33 | chromatographic logD ([4]; pH 7.4): 4.52 | chromatographic logD ([4]; pH 10.5): 5.03 | fraction unbound at 1 µM [5]: 0.007 | HSA (%) binding [6]: 98.04% | CC50 at 72 h [7]: 15.2 µM

Cc1ccc(-c2cc(CN3CCOCC3)c(C)n2-c2ccc(F)cc2)cc1 [Compound 5, 2-Methyl-3-[(morpholin-4-yl)-methyl]-5-[4-(methyl)phenyl]-1-[4-(fluoro)phenyl]-1H-pyrrole]
Tox50, cytotoxicity in HepG2 cells [1]: 20.08 µM | half-life [2]: 20.4 min | MIC [3]: 0.3 µM (≈ 0.109 µg/mL) | chromatographic logD ([4]; pH 2): 1.12 | chromatographic logD ([4]; pH 7.4): 3.86 | chromatographic logD ([4]; pH 10.5): 4.26 | fraction unbound at 1 µM [5]: 0.005 | HSA (%) binding [6]: 96.72% | Cli human [8]: <0.5 mL/min/g | half-life [8]: > 30 min | CC50 at 72 h [7]: > 351 µM | melting point: 133 to 135 °C

COc1ccc(-c2cc(CN3CCOCC3)c(C)n2-c2ccc(F)cc2)cc1 [Compound 6, 2-Methyl-3-[(morpholin-4-yl)-methyl]-5-[4-(methoxy)phenyl]-1-[4-(fluoro)phenyl]-1H-pyrrole]
Cli mouse [2]: 4.7 ± 0.1 mL/min/g | half-life [2]: 15.9 min | MIC [3]: 0.6 µM (≈ 0.228 µg/mL) | chromatographic logD ([4]; pH 2): 0.93 | chromatographic logD ([4]; pH 7.4): 3.32 | chromatographic logD ([4]; pH 10.5): 3.73 | fraction unbound at 1 µM [5]: 0.017 | HSA (%) binding [6]: 95.58% | Cli human [8]: 0.5 ± 0 mL/min/g | half-life [8]: > 30 min | CC50 at 72 h [7]: 58.7 µM | melting point: 169 °C

CSc1ccc(-c2cc(CN3CCOCC3)c(C)n2-c2ccc(F)cc2)cc1 [Compound 7, 2-Methyl-3-[(morpholin-4-yl)-methyl]-5-[4-(methylthio)phenyl]-1-[4-(fluoro)phenyl]-1H-pyrrole]
Tox50, cytotoxicity in HepG2 cells [1]: 32.9 µM | Cli mouse [2]: 7.30 mL/min/g | half-life [2]: 9.27 min | MIC [3]: 0.6 µM (≈ 0.238 µg/mL) | chromatographic logD ([4]; pH 2): 1.13 | chromatographic logD ([4]; pH 7.4): 3.82 | chromatographic logD ([4]; pH 10.5): 4.24 | fraction unbound at 1 µM [5]: 0.004 | HSA (%) binding [6]: 97.00% | Cli human [8]: 0.56 mL/min/g | half-life [8]: > 30 min | CC50 at 72 h [7]: 44.3 µM | melting point: 134 °C

CCc1ccc(-c2cc(CN3CCOCC3)c(C)n2-c2ccc(F)cc2)cc1 [Compound 8, 2-Methyl-3-[(morpholin-4-yl)-methyl]-5-[4-(ethyl)phenyl]-1-[4-(fluoro)phenyl]-1H-pyrrole]
Tox50, cytotoxicity in HepG2 cells [1]: 19.5 µM | Cli mouse [2]: 5.64 mL/min/g | half-life [2]: 12.5 min | MIC [3]: 0.2 µM (≈ 0.0757 µg/mL) | chromatographic logD ([4]; pH 2): 1.26 | chromatographic logD ([4]; pH 7.4): 4.21 | chromatographic logD ([4]; pH 10.5): 4.64 | fraction unbound at 1 µM [5]: 0.006 | HSA (%) binding [6]: 97.14% | Cli human [8]: 1.09 mL/min/g | half-life [8]: > 30 min | CC50 at 72 h [7]: 18.9 µM | melting point: 107 °C

Cc1ccc(-c2cc(CN3CCOCC3)c(C)n2-c2ccc(Cl)cc2)cc1 [Compound 10, 2-Methyl-3-[(morpholin-4-yl)-methyl]-5-[4-(methyl)phenyl]-1-[4-(chloro)phenyl]-1H-pyrrole]
Tox50, cytotoxicity in HepG2 cells [1]: 25 µM | Cli mouse [2]: 2.6 ± 0.1 mL/min/g | half-life [2]: 25.7 min | MIC [3]: 0.6 µM (≈ 0.229 µg/mL) | chromatographic logD ([4]; pH 2): 1.3 | chromatographic logD ([4]; pH 7.4): 4.4 | chromatographic logD ([4]; pH 10.5): 4.78 | fraction unbound at 1 µM [5]: 0.002 | HSA (%) binding [6]: 97.69% | Cli human [8]: <0.5 mL/min/g | half-life [8]: > 30 min | CC50 at 72 h [7]: 179 µM | melting point: 130 °C

CCc1ccc(-c2cc(CN3CCOCC3)c(C)n2-c2ccc(Cl)cc2)cc1 [Compound 11, 2-Methyl-3-[(morpholin-4-yl)-methyl]-5-[4-(ethyl)phenyl]-1-[4-(chloro)phenyl]-1H-pyrrole]
Tox50, cytotoxicity in HepG2 cells [1]: 8.8 µM | Cli mouse [2]: 2.83 mL/min/g | half-life [2]: 25 min | MIC [3]: 0.2 µM (≈ 0.079 µg/mL) | chromatographic logD ([4]; pH 2): 1.42 | chromatographic logD ([4]; pH 7.4): 4.77 | chromatographic logD ([4]; pH 10.5): 5.16 | fraction unbound at 1 µM [5]: < 0.001 | HSA (%) binding [6]: 97.74% | Cli human [8]: 0.52 mL/min/g | half-life [8]: > 30 min | CC50 at 72 h [7]: > 256 µM | melting point: 134 °C

CCCc1ccc(-c2cc(CN3CCOCC3)c(C)n2-c2ccc(Cl)cc2)cc1 [Compound 12, 2-Methyl-3-[(morpholin-4-yl)-methyl]-5-[4-(propyl)phenyl]-1-[4-(chloro)phenyl]-1H-pyrrole]
Tox50, cytotoxicity in HepG2 cells [1]: 13.3 µM | half-life [2]: > 30 min | MIC [3]: 2 µM (≈ 0.818 µg/mL) | chromatographic logD ([4]; pH 2): 1.61 | chromatographic logD ([4]; pH 7.4): 5.3 | chromatographic logD ([4]; pH 10.5): 5.59 | fraction unbound at 1 µM [5]: < 0.001 | HSA (%) binding [6]: 98.00% | Cli human [8]: <0.5 mL/min/g | half-life [8]: > 30 min | CC50 at 72 h [7]: > 256 µM | melting point: 113 °C

Cc1c(CN2CCOCC2)cc(-c2ccc(C(C)C)cc2)n1-c1ccc(Cl)cc1 [Compound 13, 2-Methyl-3-[(morpholin-4-yl)-methyl]-5-[4-(i-propyl)phenyl]-1-[4-(chloro)phenyl]-1H-pyrrole]
Tox50, cytotoxicity in HepG2 cells [1]: 10.0 µM | half-life [2]: > 30 min | MIC [3]: 0.6 µM (≈ 0.245 µg/mL) | chromatographic logD ([4]; pH 2): 1.56 | chromatographic logD ([4]; pH 7.4): 5.13 | chromatographic logD ([4]; pH 10.5): 5.45 | fraction unbound at 1 µM [5]: < 0.001 | HSA (%) binding [6]: 97.94% | Cli human [8]: 0.71 mL/min/g | half-life [8]: > 30 min | CC50 at 72 h [7]: 241 µM | melting point: 135 °C

Cc1ccc(-n2c(-c3ccc(Cl)cc3)cc(CN3CCOCC3)c2C)cc1 [Compound 14, 2-Methyl-3-[(morpholin-4-yl)-methyl]-5-[4-(chloro)phenyl]-1-[4-(methyl)phenyl]-1H-pyrrole]
Tox50, cytotoxicity in HepG2 cells [1]: 26.0 µM | Cli mouse [2]: 7.41 mL/min/g | half-life [2]: 9.69 min | MIC [3]: 1.3 µM (≈ 0.495 µg/mL) | chromatographic logD ([4]; pH 2): 1.28 | chromatographic logD ([4]; pH 7.4): 4.53 | chromatographic logD ([4]; pH 10.5): 4.94 | fraction unbound at 1 µM [5]: < 0.001 | HSA (%) binding [6]: 97.62% | Cli human [8]: 0.57 mL/min/g | half-life [8]: > 30 min | CC50 at 72 h [7]: 9.31 µM | melting point: 111 °C

CCc1ccc(-n2c(-c3ccc(Cl)cc3)cc(CN3CCOCC3)c2C)cc1 [Compound 15, 2-Methyl-3-[(morpholin-4-yl)-methyl]-5-[4-(chloro)phenyl]-1-[4-(ethyl)phenyl]-1H-pyrrole]
Tox50, cytotoxicity in HepG2 cells [1]: 17.8 µM | Cli mouse [2]: 4.0 ± 0.1 mL/min/g | half-life [2]: 18.5 min | MIC [3]: 0.6 µM (≈ 0.237 µg/mL) | chromatographic logD ([4]; pH 2): 1.54 | chromatographic logD ([4]; pH 7.4): 5.01 | chromatographic logD ([4]; pH 10.5): 5.36 | fraction unbound at 1 µM [5]: < 0.001 | HSA (%) binding [6]: 98.03% | Cli human [8]: 0.9 ± 0 mL/min/g | half-life [8]: > 30 min | CC50 at 72 h [7]: 170 µM | melting point: 102 °C
